This note sets out measurements from PubChem BioAssay (NCI).

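Tested at 5 concentrations; 48 h exposure; 96-well plates; endpoints linearly interpolated, else capped at highest concentration. TGI denotes the concentration required for complete inhibition of growth.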

Holding throughout (test): NCI-60 cell line screen, 48 h
For assay [1], the system named is CAKI-1 renal.
For assay [2], the system named is CCRF-CEM leukemia.
Assay [3] has as its system COLO 205 colon.
Assay [4] concerns EKVX NSCLC.
Assay [5] relates to IGROV1 ovarian.
In assay [6] the test system is NCI-H522 lung.
For assay [7], the system named is SN12C renal.
Assay [8] has as its system SR leukemia.
In assay [9] the test system is UACC-257 melanoma.
In assay [10] the test system is OVCAR-3 ovarian.
In assay [11] the test system is MDA-MB-231 breast.

As for `CCOC(=O)/C(=C/c1ccco1)P(=O)(OCC)OCC`, the TGI in assay [1], in assay [2], in [3], in assay [4], in [5] and in [6] was above 100 µM in each case. Further, the TGI in [7], in [8] and in [9] was above 100 µM each time.

`NC(=O)NC(=NCc1ccccc1)NCc1ccccc1`: the TGI in assay [1], in assay [3], in assay [4], in assay [5], in assay [6] and in assay [10] was above 100 µM throughout. Besides, the TGI in assay [7] and in assay [9] was above 100 µM each time.

Consider `COC1OC2COC(C)(C)OC2C2OC(C)(C)OC12` (stereo not given), for which the TGI in assay [1] is 33.1 µM; in [2], 48.8 µM; in assay [3], above 100 µM; in assay [4], above 100 µM; in assay [5], above 100 µM; in assay [11] it was above 100 µM. In addition, the TGI in assay [6] is above 100 µM; in assay [10], above 100 µM; in assay [7] it was 67.1 µM; in [9], above 100 µM.

Consider `CCOC(=O)c1c(NC(=S)Nc2ccc(C)cc2)sc2c1CCN(C)C2`, for which the TGI in [1], in assay [2], in assay [3], in assay [4], in assay [5] and in [11] was above 100 µM throughout. Besides, the TGI in assay [10], in assay [7] and in assay [9] was above 100 µM in each case.

As for `O=[N+]([O-])c1ccc2nc3c(nc2c1)-c1c2ccccc2cc2cccc-3c12`, the TGI in assay [1] was above 40.7 µM; in [2] it was above 100 µM; in [3], above 100 µM; in assay [4] it was above 100 µM; in assay [5] it was above 28.4 µM; in [11] it was 64.2 µM. The TGI in assay [6] is 7.85 µM; in assay [10], 51.7 µM; in [7], above 100 µM; in [9], above 94.6 µM.

As to `CCOC(=O)c1[nH]c2nc(SC)nc(NC)c2c1N`, the TGI in assay [1], in assay [2], in [3], in assay [5], in assay [11] and in assay [6] was above 100 µM in each case. Moreover, the TGI in assay [10], in [7] and in assay [9] was above 100 µM each time.

Turning to `COc1cc2c(cc1O)CC[n+]1cc3c(OC)c(OC)ccc3cc1-2`, the TGI in assay [1], in assay [2], in [3], in [4], in assay [5] and in [11] was above 100 µM throughout. For the same compound, the TGI in assay [6], in assay [10], in [7] and in [9] was above 100 µM each time.

With `O=C(c1ccccc1)[C@H]1Nc2cnccc2C2c3ccccc3CC21` (stereo not given in full), the TGI in [1] was above 73.6 µM; in assay [2] it was 17.8 µM; in assay [3] it was 42.9 µM; in assay [4], 71 µM; in [5], above 58.6 µM; in assay [6], 8.56 µM. Moreover, the TGI was 29.7 µM in assay [10], 31.8 µM in [7], 61.6 µM in [8] and 26.1 µM in assay [9].

Take `CN1c2ccccc2C(=O)NC12CCN(CC1COc3ccccc3O1)CC2` (stereo not given): the TGI in assay [2], in assay [3], in assay [4], in assay [5], in [8] and in [9] was above 100 µM each time.

As to `COC(=O)C(=O)C(C(=O)C(=O)Nc1cc([N+](=O)[O-])ccc1C#N)c1nc2ccccc2[nH]c1=O` (stereo not given), the TGI in assay [1], in [2], in [3], in [4], in assay [5] and in [6] was above 100 µM throughout. For the same compound, the TGI in assay [10], in assay [7], in [8] and in [9] was above 100 µM in each case.

With `C=C1CC2C(=O)N(c3ccccc3)C(=O)C2CC1n1[nH]c(=O)n(Cc2ccccc2)c1=O` (stereo not given), the TGI in assay [1], in assay [2], in [3], in assay [4], in assay [5] and in assay [6] was above 100 µM in each case. The TGI in assay [10], in assay [7], in assay [8] and in assay [9] was above 100 µM in each case.

Take `Brc1ccc2c(c1)-c1nc3c(cc1CC2)CCc1ccc(Br)cc1-3`: the TGI in [1], in assay [2], in [3], in assay [4], in [5] and in [11] was above 100 µM throughout. Besides, the TGI in assay [6], in assay [10], in [7] and in assay [9] was above 100 µM each time.

For the compound `CCOC(=O)C(NC(=O)c1ccc(N=NN(C)C)cc1)C(C)C` (stereo not given), the TGI in assay [1], in assay [2], in assay [3], in assay [4], in assay [5] and in [6] was above 100 µM throughout. Further, the TGI in assay [10], in [7], in [8] and in assay [9] was above 100 µM throughout.

Turning to `CC1=C(C(=O)NNC(=O)CC#N)CC(C(=O)NNC(=O)CC#N)=C(C)N1`, the TGI in [1], in assay [3], in assay [4], in assay [5], in [11] and in assay [10] was above 100 µM in each case. The TGI in assay [7] and in assay [9] was above 100 µM in each case.

Turning to `NC(CCSCC(F)F)C(=O)O` (stereo not given), the TGI in assay [1], in [2], in [3], in assay [4], in assay [5] and in assay [6] was above 100 µM throughout. The TGI in assay [10], in assay [7], in [8] and in assay [9] was above 100 µM each time.

With `CC1(C)OC(=O)C=C([O-])O1.CC1(C)OC(=O)C=C([O-])O1.O=c1c(O)c(-c2ccc([O-])cc2[O-])oc2cc(O)cc(O)c12.[Ti+4]`, the TGI in [1] was above 100 µM; in [2], above 100 µM; in assay [3] it was above 100 µM; in assay [4], above 100 µM; in assay [5] it was above 100 µM; in assay [6] it was 63 µM. In addition, the TGI in assay [10], in assay [7] and in assay [9] was above 100 µM in each case.

For the compound `Clc1cccc(C2ON=C(c3ccccc3)N2C23CC4CC(CC(C4)C2)C3)c1Cl` (stereo not given), the TGI in assay [1], in [2], in assay [3], in [4], in [5] and in [11] was above 10 µM each time. The TGI in assay [6], in assay [10], in assay [7] and in [9] was above 10 µM throughout.

As to `COC(=O)c1cc(C(=O)OC)cc(-c2ccc3c(c2)-c2nc4c(c(-c5ccc(OC)cc5)c2CC3)CCc2ccc(-c3cc(C(=O)OC)cc(C(=O)OC)c3)cc2-4)c1`, the TGI in assay [1] is above 100 µM; in assay [3], above 100 µM; in [4], 31.3 µM; in assay [11] it was above 100 µM; in assay [6] it was above 100 µM; in assay [10] it was above 100 µM. Besides, the TGI in assay [7] and in assay [9] was above 100 µM each time.

As to `O=C1NN=C(c2c[nH]c3ccccc23)CC1NCc1ccccc1` (stereo not given), the TGI in [1], in assay [2], in [3], in assay [5], in assay [11] and in assay [6] was above 100 µM each time. Further, the TGI in assay [10], in assay [7] and in [9] was above 100 µM each time.

Regarding `CCN(CC)C(=S)SS(=O)(=O)c1ccc(C)cc1`, the TGI in assay [1] is 37.3 µM; in [3] it was 63.7 µM; in assay [4], above 100 µM; in assay [11] it was above 100 µM; in assay [10], above 100 µM; in [7], 49.7 µM. Further, in assay [9], the TGI was determined as 46.3 µM.

`CC12CCC(C/C1=N\NC(N)=O)C2(C)C` (stereo not given): the TGI in assay [1], in assay [2], in [3], in assay [4], in [5] and in assay [6] was above 100 µM throughout. Further, the TGI in [10], in assay [7], in [8] and in assay [9] was above 100 µM throughout.

Consider `NC(=S)N=Nc1c(O)cc(Nc2ccc(Cl)cc2Cl)c2ccccc12`, for which the TGI in assay [1] was 38.6 µM; in [3], above 100 µM; in assay [4] it was 94.4 µM; in [5] it was 88 µM; in assay [11] it was 27.6 µM; in [10] it was 54.4 µM. Also, the TGI in assay [7] and in [9] was above 100 µM throughout.

Turning to `Cc1cc(C)nc(NS(=O)(=O)c2ccc(Nc3c4ccccc4nc4c(C(=O)N5CCN(CCOS(C)(=O)=O)CC5)ccc(Cl)c34)cc2)n1`, the TGI in assay [1], in assay [2], in [3], in [5], in assay [10] and in assay [7] was above 100 µM in each case. Besides, the TGI in assay [8] and in assay [9] was above 100 µM throughout.

For `O=C(NCCCNCCCCNCCCNC(=O)C(F)(F)F)C(F)(F)F`, the TGI in assay [1] was 40.4 µM; in assay [2], above 100 µM; in assay [3], above 100 µM; in assay [4], above 100 µM; in [5], above 100 µM; in assay [11], above 100 µM. Besides, the TGI in assay [6], in assay [10], in assay [7] and in assay [9] was above 100 µM in each case.

As for `COC(=O)/C(=N\NC(=S)NN)C(C(=O)C(=O)Nc1ccccc1C(N)=O)c1nc2ccccc2[nH]c1=O` (stereo not given), the TGI in assay [1], in [2], in assay [3], in assay [4], in [5] and in assay [6] was above 100 µM in each case. Moreover, the TGI in assay [7], in [8] and in [9] was above 100 µM throughout.

For the compound `CCOP(=O)(OCC)c1cc(-c2ccccc2)ccc1N`, the TGI in assay [1], in assay [2], in assay [3], in assay [4], in assay [5] and in assay [11] was above 100 µM each time. Further, the TGI in assay [6], in [10] and in assay [9] was above 100 µM throughout.

With `CCCC[C@@H]1CCN2C[C@@H](O)[C@@H](O)[C@H]2[C@@H]1O`, the TGI in assay [1], in assay [2], in assay [3], in assay [4], in [5] and in [11] was above 100 µM throughout. The TGI in assay [6], in assay [10] and in [9] was above 100 µM in each case.

Consider `Cc1ccsc1C(=S)Nc1ccc(Cl)c(C(=O)OC(C(C)C)C(C)C)c1`, for which the TGI in assay [1] was 59.8 µM; in assay [2], above 100 µM; in assay [3] it was 26.1 µM; in [4], above 100 µM; in assay [5], above 100 µM; in assay [11], 71.3 µM. Moreover, the TGI is 81.8 µM in assay [6], 33.5 µM in assay [10], above 100 µM in [7] and above 100 µM in assay [9].
